# Laboratory results: ChEMBL document CHEMBL5365475, “Design, synthesis and antiplasmodial evaluation of new amide-, carbamate-, and ureido-type harmicines” (Bioorg Med Chem, 2023)
# The source made the active and inactive calls. The calls are words filed in the database; no cut-off is given here.
# What was measured:
# [1] = tested on: Plasmodium falciparum; assay: Antimalarial activity against erythrocytic stage of chloroquine-sensitive Plasmodium falciparum 3D7 measured after 3 days by HRP2-ELISA analysis; type: functional, organism-based; conditions: 3D7, 72 h
# [2] = tested on: Plasmodium falciparum; assay: Antimalarial activity against erythrocytic stage of chloroquine-resistant Plasmodium falciparum Dd2 measured after 3 days by HRP2-ELISA analysis; type: functional, organism-based; conditions: Dd2, 72 h
# [3] = tested on: Plasmodium falciparum; assay: Resistance index, ratio of IC50 for antiplasmodial activity against chloroquine-resistant Plasmodium falciparum Dd2 to IC50 for antiplasmodial activity against chloroquine-sensitive Plasmodium falciparum 3D7; type: functional
# [4] = tested on: HepG2; assay: Cytotoxicity against human HepG2 cells assessed as reduction in cell viability incubated for 72 hrs by MTT assay; type: functional, cell-based; conditions: HepG2, 72 h
# [5] = Selectivity index, ratio of IC50 for cytotoxicity against human HepG2 cells to IC50 for erythrocytic stage of chloroquine-sensitive Plasmodium falciparum 3D7; type: toxicity, cell-based; conditions: read-out: Ratio IC50
# [6] = tested on: Plasmodium berghei; assay: Antiplasmodial activity against luciferase-expressing Plasmodium berghei infected in human Huh-7 cells assessed as reduction in parasite load at 1 to 10 uM preincubated with cells for 1 hr followed by parasite infection and measured after 46 hrs by bioluminescence assay; type: functional, organism-based; conditions: dose 1-10 µM, time 47.0 hrs
# [7] = tested on: Plasmodium berghei; assay: Antiplasmodial activity against luciferase-expressing Plasmodium berghei infected in human Huh-7 cells assessed as reduction in parasite load preincubated with cells for 1 hr followed by parasite infection and measured after 46 hrs by bioluminescence assay; type: functional, organism-based
SMILES,IC50 [1] [nM],IC50 [2] [nM],Ratio IC50 [3],IC50 [4] [µM],selectivity ratio [5],Activity [6],IC50 [7] [nM]
COc1ccc2c3ccnc(C)c3n(CCNC(=O)OC/C=C/c3cccc(OC(F)(F)F)c3)c2c1,680,1780,2.62,8.71,12.8,Active,–
COc1ccc2c3ccnc(C)c3n(CCNC(=O)/C=C/c3ccccc3Cl)c2c1,320,500,1.56,7.19,21.8,Active,–
COc1ccc2c3ccnc(C)c3n(CCNC(=O)OC/C=C/c3cc(C(F)(F)F)cc(C(F)(F)F)c3)c2c1,650,2630,4.05,7.19,21.8,–,–
COc1ccc2c3ccnc(C)c3n(CCNC(=O)OC/C=C/c3ccc([N+](=O)[O-])cc3)c2c1,360,330,0.92,–,–,Active,–
COc1ccc2c3ccnc(C)c3n(CCNC(=O)OC/C=C/c3ccccc3Cl)c2c1,1240,1330,1.07,–,–,–,–
CCCOc1ccc(/C=C/COC(=O)NCCn2c3cc(OC)ccc3c3ccnc(C)c32)cc1,390,830,2.13,9.96,19.9,Active,–
COc1ccc2c3ccnc(C)c3n(CCNC(=O)OC/C=C/c3cccc(C(F)(F)F)c3)c2c1,500,1920,3.84,–,–,Active,–
COc1ccc2c(c1)[nH]c1c(C)nccc12 [HARMINE],–,> 27700,> 3.36,> 250,30,–,–
COc1ccc2c3ccnc(C)c3n(CCNC(=O)OC/C=C/c3ccc(C(F)(F)F)cc3)c2c1,790,700,0.89,6.71,8.49,Active,–
COc1ccc2c3ccnc(C)c3n(CCNC(=O)OC/C=C/c3ccccc3)c2c1,550,1370,2.49,7.21,18.5,Active,3380
COc1ccc2c3ccnc(C)c3n(CCNC(=O)/C=C/c3cccc(OC(F)(F)F)c3)c2c1,350,2110,6.03,6.64,16.2,Active,2290
COc1cc(NC(C)CCCN)c2ncccc2c1 (configuration not stated),–,–,–,–,–,Active,–
COc1ccc2c3ccnc(C)c3n(CCNC(=O)NC/C=C/c3cccc(C(F)(F)F)c3)c2c1,220,1070,4.86,9.84,44.7,Active,2890
COc1ccc2c3ccnc(C)c3n(CCNC(=O)OC/C=C/c3ccc(Br)cc3)c2c1,420,1090,2.6,9.05,21.6,Active,–
COc1ccc2c3ccnc(C)c3n(CCNC(=O)/C=C/c3cccc(Cl)c3)c2c1,330,680,2.06,8.97,25.6,Active,–
COc1ccc2c3ccnc(C)c3n(CCNC(=O)OC/C=C/c3ccc(C)cc3)c2c1,1130,2280,2.48,9.92,8.78,Active,–
CCCOc1ccc(/C=C/CNC(=O)NCCn2c3cc(OC)ccc3c3ccnc(C)c32)cc1,420,1120,2.67,4.33,10.3,Active,–
COc1ccc2c3ccnc(C)c3n(CCNC(=O)/C=C/c3ccc(Br)cc3)c2c1,410,–,–,8.58,8.76,Active,–
COc1ccc2c3ccnc(C)c3n(CCNC(=O)/C=C/c3ccc(C)cc3)c2c1,980,640,0.65,8.16,6,Active,–
COc1ccc2c3ccnc(C)c3n(CCNC(=O)/C=C/c3ccc([N+](=O)[O-])cc3)c2c1,1360,2050,1.51,17.5,31.8,Active,–
COc1ccc2c3ccnc(C)c3n(CCNC(=O)OC/C=C/c3cccc(Cl)c3)c2c1,970,1190,1.23,8.52,8.78,Active,–
